According to ChEMBL document CHEMBL4257522, “Synthesis and preliminary anti-inflammatory and anti-bacterial evaluation of some diflunisal aza-analogs” (Medchemcomm, 2018):
The source made the active and inactive calls. The calls are words filed in the database; no cut-off is given here.

Columns and labels:
Macrophage cell line [1] = test: Cytotoxicity against human PBMC-differentiated macrophages treated for 24 hrs followed by compound washout and measured after 48 hrs by MTT assay; format: cell-based
Macrophage cell line [2] = test: Antiinflammatory activity in human PBMC-differentiated macrophages assessed as inhibition of LPS-induced IL-8 production at 0.01 to 10 uM measured after 24 hrs by ELISA; format: functional, cell-based
Macrophage cell line [3] = test: Antiinflammatory activity in human PBMC-differentiated macrophages assessed as inhibition of LPS-induced prostaglandin production at 0.01 to 10 uM measured after 24 hrs by ELISA; format: functional, cell-based
Macrophage cell line [4] = test: Induction of TNFalpha production in human PBMC-differentiated macrophages after 24 hrs by ELISA; format: cell-based
Macrophage cell line [5] = test: Induction of IL-1beta production in human PBMC-differentiated macrophages after 24 hrs by ELISA; format: cell-based
Macrophage cell line [6] = test: Induction of prostaglandin production in human PBMC-differentiated macrophages after 24 hrs by ELISA; format: cell-based
Klebsiella pneumoniae [7] = test: Toxicity in Klebsiella pneumoniae ATCC 13883 up to 32 uM measured after 16 hrs; format: organism-based
Enterococcus faecium [8] = test: Toxicity in Enterococcus faecium ATCC 700221 up to 32 uM measured after 16 hrs; format: organism-based; details: in vitro
Pseudomonas aeruginosa [9] = test: Toxicity in Pseudomonas aeruginosa ATCC BAA-2108 up to 32 uM measured after 16 hrs; format: organism-based; details: in vitro
Escherichia coli [10] = test: Toxicity in Escherichia coli ATCC 43894 up to 32 uM measured after 16 hrs; format: organism-based
Staphylococcus aureus [11] = test: Potentiation of geneticin-induced antibacterial activity against Staphylococcus aureus ATCC 33592 assessed as minimum modulatory concentration up to 32 uM measured after 16 hrs in presence of MIC/4 geneticin; format: functional; details: ATCC 33592, 16 h, read-out: MEC
Staphylococcus aureus [12] = test: Potentiation of ciprofloxacin-induced antibacterial activity against Staphylococcus aureus ATCC 33592 assessed as minimum modulatory concentration up to 32 uM measured after 16 hrs in presence of MIC/4 ciprofloxacin; format: functional; details: ATCC 33592, 16 h, read-out: MEC
Staphylococcus aureus [13] = test: Potentiation of erythromycin-induced antibacterial activity against Staphylococcus aureus ATCC 33592 assessed as minimum modulatory concentration up to 32 uM measured after 16 hrs in presence of MIC/4 erythromycin; format: functional; details: ATCC 33592, 16 h, read-out: MEC
Streptococcus pyogenes [14] = test: Potentiation of methicillin-induced antibacterial activity against Streptococcus pyogenes ATCC 14289 assessed as minimum modulatory concentration up to 32 uM measured after 16 hrs in presence of MIC/4 methicillin; format: functional; details: ATCC 14289, 16 h, read-out: MEC
Streptococcus pyogenes [15] = test: Potentiation of geneticin-induced antibacterial activity against Streptococcus pyogenes ATCC 14289 assessed as minimum modulatory concentration up to 32 uM measured after 16 hrs in presence of MIC/4 geneticin; format: functional; details: ATCC 14289, 16 h, read-out: MEC
Streptococcus pyogenes [16] = test: Potentiation of ciprofloxacin-induced antibacterial activity against Streptococcus pyogenes ATCC 14289 assessed as minimum modulatory concentration up to 32 uM measured after 16 hrs in presence of MIC/4 ciprofloxacin; format: functional; details: ATCC 14289, 16 h, read-out: MEC
Streptococcus pyogenes [17] = test: Potentiation of erythromycin-induced antibacterial activity against Streptococcus pyogenes ATCC 14289 assessed as minimum modulatory concentration up to 32 uM measured after 16 hrs in presence of MIC/4 erythromycin; format: functional; details: ATCC 14289, 16 h, read-out: MEC
Klebsiella pneumoniae [18] = test: Potentiation of ciprofloxacin-induced antibacterial activity against Klebsiella pneumoniae ATCC 13883 assessed as minimum modulatory concentration up to 32 uM measured after 16 hrs in presence of MIC/4 ciprofloxacin; format: functional; details: ATCC 13883, 16 h, read-out: MEC
Klebsiella pneumoniae [19] = test: Potentiation of tetracycline-induced antibacterial activity against Klebsiella pneumoniae ATCC 13883 assessed as minimum modulatory concentration up to 32 uM measured after 16 hrs in presence of MIC/4 tetracycline; format: functional; details: ATCC 13883, 16 h, read-out: MEC
Klebsiella pneumoniae [20] = test: Potentiation of erythromycin-induced antibacterial activity against Klebsiella pneumoniae ATCC 13883 assessed as minimum modulatory concentration up to 32 uM measured after 16 hrs in presence of MIC/4 erythromycin; format: functional; details: ATCC 13883, 16 h, read-out: MEC
Enterococcus faecium [21] = test: Potentiation of methicillin-induced antibacterial activity against Enterococcus faecium ATCC 700221 assessed as minimum modulatory concentration up to 32 uM measured after 16 hrs in presence of MIC/4 methicillin; format: functional; details: ATCC 700221, 16 h, read-out: MEC
Enterococcus faecium [22] = test: Potentiation of geneticin-induced antibacterial activity against Enterococcus faecium ATCC 700221 assessed as minimum modulatory concentration up to 32 uM measured after 16 hrs in presence of MIC/4 geneticin; format: functional; details: ATCC 700221, 16 h, read-out: MEC
Enterococcus faecium [23] = test: Potentiation of ciprofloxacin-induced antibacterial activity against Enterococcus faecium ATCC 700221 assessed as minimum modulatory concentration up to 32 uM measured after 16 hrs in presence of MIC/4 ciprofloxacin; format: functional; details: ATCC 700221, 16 h, read-out: MEC
Enterococcus faecium [24] = test: Potentiation of erythromycin-induced antibacterial activity against Enterococcus faecium ATCC 700221 assessed as minimum modulatory concentration up to 32 uM measured after 16 hrs in presence of MIC/4 erythromycin; format: functional; details: ATCC 700221, 16 h, read-out: MEC
Pseudomonas aeruginosa [25] = test: Potentiation of methicillin-induced antibacterial activity against Pseudomonas aeruginosa ATCC BAA-2108 assessed as minimum modulatory concentration up to 32 uM measured after 16 hrs in presence of MIC/4 methicillin; format: functional; details: ATCC BAA-2108, 16 h, read-out: MEC
Pseudomonas aeruginosa [26] = test: Potentiation of geneticin-induced antibacterial activity against Pseudomonas aeruginosa ATCC BAA-2108 assessed as minimum modulatory concentration up to 32 uM measured after 16 hrs in presence of MIC/4 geneticin; format: functional; details: ATCC BAA-2108, 16 h, read-out: MEC
Pseudomonas aeruginosa [27] = test: Potentiation of ciprofloxacin-induced antibacterial activity against Pseudomonas aeruginosa ATCC BAA-2108 assessed as minimum modulatory concentration up to 32 uM measured after 16 hrs in presence of MIC/4 ciprofloxacin; format: functional; details: ATCC BAA-2108, 16 h, read-out: MEC
Pseudomonas aeruginosa [28] = test: Potentiation of tetracycline-induced antibacterial activity against Pseudomonas aeruginosa ATCC BAA-2108 assessed as minimum modulatory concentration up to 32 uM measured after 16 hrs in presence of MIC/4 tetracycline; format: functional; details: ATCC BAA-2108, 16 h, read-out: MEC
Pseudomonas aeruginosa [29] = test: Potentiation of erythromycin-induced antibacterial activity against Pseudomonas aeruginosa ATCC BAA-2108 assessed as minimum modulatory concentration up to 32 uM measured after 16 hrs in presence of MIC/4 erythromycin; format: functional; details: ATCC BAA-2108, 16 h, read-out: MEC
Escherichia coli [30] = test: Potentiation of methicillin-induced antibacterial activity against Escherichia coli ATCC 43894 assessed as minimum modulatory concentration up to 32 uM measured after 16 hrs in presence of MIC/4 methicillin; format: functional; details: ATCC 43894, 16 h, read-out: MEC
Escherichia coli [31] = test: Potentiation of geneticin-induced antibacterial activity against Escherichia coli ATCC 43894 assessed as minimum modulatory concentration up to 32 uM measured after 16 hrs in presence of MIC/4 geneticin; format: functional; details: ATCC 43894, 16 h, read-out: MEC
Escherichia coli [32] = test: Potentiation of ciprofloxacin-induced antibacterial activity against Escherichia coli ATCC 43894 assessed as minimum modulatory concentration up to 32 uM measured after 16 hrs in presence of MIC/4 ciprofloxacin; format: functional; details: ATCC 43894, 16 h, read-out: MEC
Escherichia coli [33] = test: Potentiation of tetracycline-induced antibacterial activity against Escherichia coli ATCC 43894 assessed as minimum modulatory concentration up to 32 uM measured after 16 hrs in presence of MIC/4 tetracycline; format: functional; details: ATCC 43894, 16 h, read-out: MEC

Structure (SMILES) | IC50 (Macrophage cell line [1]) [µM] | inhibition (Macrophage cell line [2]) | inhibition (Macrophage cell line [3]) | Activity (Macrophage cell line [4]) | Activity (Macrophage cell line [5]) | Activity (Macrophage cell line [6]) | Activity (Klebsiella pneumoniae [7]) | Activity (Enterococcus faecium [8]) | Activity (Pseudomonas aeruginosa [9]) | Activity (Escherichia coli [10]) | minimal effective concentration (Staphylococcus aureus [11]) [µM] | minimal effective concentration (Staphylococcus aureus [12]) [µM] | minimal effective concentration (Staphylococcus aureus [13]) [µM] | minimal effective concentration (Streptococcus pyogenes [14]) [µM] | minimal effective concentration (Streptococcus pyogenes [15]) [µM] | minimal effective concentration (Streptococcus pyogenes [16]) [µM] | minimal effective concentration (Streptococcus pyogenes [17]) [µM] | minimal effective concentration (Klebsiella pneumoniae [18]) [µM] | minimal effective concentration (Klebsiella pneumoniae [19]) [µM] | minimal effective concentration (Klebsiella pneumoniae [20]) [µM] | other results
O=C(O)c1cnc(-c2ccccc2)c(O)c1 | > 100 | inactive | inactive | Non-Toxic | Non-Toxic | Non-Toxic | Non-Toxic | Non-Toxic | Non-Toxic | Non-Toxic | 2 | > 32 | 2 | 1 | 8 | > 32 | 4 | > 32 | > 32 | > 32 | minimal effective concentration (Enterococcus faecium [21]): 0.5 µM; minimal effective concentration (Enterococcus faecium [22]): 8 µM; minimal effective concentration (Enterococcus faecium [23]): > 32 µM; minimal effective concentration (Enterococcus faecium [24]): 4 µM; minimal effective concentration (Pseudomonas aeruginosa [25]): 16 µM; minimal effective concentration (Pseudomonas aeruginosa [26]): > 32 µM; minimal effective concentration (Pseudomonas aeruginosa [27]): 4 µM; minimal effective concentration (Pseudomonas aeruginosa [28]): > 32 µM; minimal effective concentration (Pseudomonas aeruginosa [29]): 4 µM; minimal effective concentration (Escherichia coli [30]): > 32 µM; minimal effective concentration (Escherichia coli [31]): > 32 µM; minimal effective concentration (Escherichia coli [32]): > 32 µM; minimal effective concentration (Escherichia coli [33]): > 32 µM
COc1cccc(-c2cc(C(=O)[O-])c(O)c[n+]2C)c1 | 96 | inactive | inactive | Non-Toxic | Non-Toxic | Non-Toxic | Non-Toxic | Non-Toxic | Non-Toxic | Non-Toxic | > 32 | > 32 | > 32 | > 32 | > 32 | > 32 | > 32 | > 32 | > 32 | > 32 | minimal effective concentration (Enterococcus faecium [21]): > 32 µM; minimal effective concentration (Enterococcus faecium [22]): > 32 µM; minimal effective concentration (Enterococcus faecium [23]): > 32 µM; minimal effective concentration (Enterococcus faecium [24]): > 32 µM; minimal effective concentration (Pseudomonas aeruginosa [25]): > 32 µM; minimal effective concentration (Pseudomonas aeruginosa [26]): > 32 µM; minimal effective concentration (Pseudomonas aeruginosa [27]): > 32 µM; minimal effective concentration (Pseudomonas aeruginosa [28]): > 32 µM; minimal effective concentration (Pseudomonas aeruginosa [29]): > 32 µM; minimal effective concentration (Escherichia coli [30]): > 32 µM; minimal effective concentration (Escherichia coli [31]): > 32 µM; minimal effective concentration (Escherichia coli [32]): > 32 µM; minimal effective concentration (Escherichia coli [33]): > 32 µM
